# Assay: solubility versus temperature in water (FIG. 2)
# Type: physicochemical
# Conditions: read from FIG. 2
smiles,measurement,setting,value
"O=C(O)c1ccc(-c2ccc(C(=O)O)cc2)cc1 [4,4′-BPDA, 4,4′-biphenyldicarboxylic acid]",water solubility (BPDA loading in the aqueous phase),320° C.,ca. 10 wt %
same,water solubility (BPDA loading in the aqueous phase),340° C.,ca. 20 wt %

# — US11091419B2, “Preparation and purification of biphenyldicarboxylic acids” (ExxonMobil Chemical Patents Inc., priority 2017, dated 2021)
